Results as given in US12661410B2, “Compounds for targeted degradation of RET” (C4 Therapeutics, Inc., priority 2020, dated 2026).
Positions count from the first letter of the chain named.

What was measured:
RET (658-1114) = target: T1, RET (658-1114) (Homo sapiens, UniProt P07949); test: HiBiT-Degradation, RET wild-type degradation assay (Nano-Glo HiBiT Lytic), 293T.144 cells; assay type: cell-based; details: for Emax / DC50: 6.0 hours; for Emax: % remaining protein, read-out: 293T.144 RET (658-1114) 6.0 hours (Emax); for DC50: half-maximal degradation concentration, read-out: 293T.144 RET (658-1114) 6.0 hours (DC50)
T1 construct: 658-1114; expressed in transfected cells; host or cells: 293T.144 (293T cells, generated in-house)
T1 sequence (P07949 658-1114): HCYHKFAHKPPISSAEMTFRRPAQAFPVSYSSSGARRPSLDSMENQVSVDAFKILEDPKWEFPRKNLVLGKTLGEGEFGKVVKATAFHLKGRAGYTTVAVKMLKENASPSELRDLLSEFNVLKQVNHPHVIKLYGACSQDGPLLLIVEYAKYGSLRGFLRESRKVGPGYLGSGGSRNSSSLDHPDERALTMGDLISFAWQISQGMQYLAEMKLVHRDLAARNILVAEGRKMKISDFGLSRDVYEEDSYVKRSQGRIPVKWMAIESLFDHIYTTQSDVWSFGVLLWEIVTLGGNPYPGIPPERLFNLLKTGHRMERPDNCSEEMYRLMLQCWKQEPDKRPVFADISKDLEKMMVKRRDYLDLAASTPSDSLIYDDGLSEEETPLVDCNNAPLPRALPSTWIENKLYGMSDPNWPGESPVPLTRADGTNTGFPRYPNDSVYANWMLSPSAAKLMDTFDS
How it was run: (§1)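 6 h treatment, 293T.144 (WT) / 293T.165 (G810R) cells ectopically expressing HiBiT-fused RET KD; 11-pt half-log dilution, top 10 μM, n=2. Nano-Glo HiBiT lytic detection, luminescence. Output: DC50, Emax (% protein remaining).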

RET(KD: 658-1114 G810R) = target: T2, RET(KD: 658-1114 G810R) (Homo sapiens, UniProt P07949, G810R); test: HiBiT-Degradation, RET G810R degradation assay (Nano-Glo HiBiT Lytic), 293T.165 cells; assay type: cell-based; details: for Emax / DC50: 6.0 hours; for Emax: % remaining protein, read-out: 293T.165 RET(KD: 658-1114 G810R) 6.0 hours (Emax); for DC50: half-maximal degradation concentration, read-out: 293T.165 RET(KD: 658-1114 G810R) 6.0 hours (DC50)
T2 construct: 658-1114; expressed in transfected cells; host or cells: 293T.165 (293T cells, generated in-house)
T2 sequence (P07949 658-1114 G810R): T1 sequence (P07949 658-1114) with G153R
How it was run: as §1

Compound	293T.144 RET (658-1114) 6.0 hours (IP) [nM] (RET (658-1114))	Emax (RET (658-1114)) [%]	DC50 (RET (658-1114)) [nM]	293T.165 RET(KD: 658-1114 G810R) 6.0 hours (IP) [nM] (RET(KD: 658-1114 G810R))	Emax (RET(KD: 658-1114 G810R)) [%]	DC50 (RET(KD: 658-1114 G810R)) [nM]
CCC1(C(=O)NC2CCC2)CCN(c2ccc(-c3nc(-c4cnn([C@H]5CC[C@H](N6CCC(c7ccc(N[C@@H]8CCC(=O)NC8=O)cc7)CC6)CC5)c4)cn4ncc(C#N)c34)cn2)CC1 (single isomer, unassigned) [Compound 128]	++++ (<50 nM = ++++)	< 30	< 50	++++ (<50 nM = ++++)	< 30	< 50
CCC1(C(=O)NC2CCC2)CCN(c2ccc(-c3nc(-c4cnn([C@H]5CC[C@H](N6CCC(c7ccc8c(c7)CCN8[C@@H]7CCC(=O)NC7=O)CC6)CC5)c4)cn4ncc(C#N)c34)cn2)CC1 (single isomer, unassigned) [Compound 129]	++++ (<50 nM = ++++)	< 30	< 50	++++ (<50 nM = ++++)	< 30	< 50
CCC1(C(=O)NC2CCC2)CCN(c2ccc(-c3nc(-c4cnn([C@H]5CC[C@H](N6CCC(c7ccc(N[C@H]8CCC(=O)NC8=O)cc7Cl)CC6)CC5)c4)cn4ncc(C#N)c34)cn2)CC1 (single isomer, unassigned) [Compound 130]	++++ (<50 nM = ++++)	< 30	< 50	++++ (<50 nM = ++++)	< 30	< 50
CCC1(C(=O)NC2CCC2)CCN(c2ccc(-c3nc(-c4cnn([C@H]5CC[C@H](N6CCC(c7ccc(N[C@@H]8CCC(=O)NC8=O)cc7Cl)CC6)CC5)c4)cn4ncc(C#N)c34)cn2)CC1 (single isomer, unassigned) [Compound 131]	++++ (<50 nM = ++++)	< 30	< 50	++++ (<50 nM = ++++)	< 30	< 50
CCC1(C(=O)NC2CCC2)CCN(c2ccc(-c3nc(-c4cnn([C@H]5CC[C@H](N6CCN(c7c(F)cc(N[C@H]8CCC(=O)NC8=O)cc7F)CC6)CC5)c4)cn4ncc(C#N)c34)cn2)CC1 (single isomer, unassigned) [Compound 136]	++++ (<50 nM = ++++)	< 30	< 50	++++ (<50 nM = ++++)	< 30	< 50
CCC1(c2ncccn2)CCN(c2ccc(-c3nc(-c4cnn([C@H]5CC[C@H](N6CCC(c7ccc(N[C@@H]8CCC(=O)NC8=O)cc7F)CC6)CC5)c4)cn4ncc(C#N)c34)cn2)CC1 (single isomer, unassigned) [Compound 140]	++++ (<50 nM = ++++)	< 30	< 50	++++ (<50 nM = ++++)	< 50	< 100
CCC1(C(=O)NC(C)(C)C)CCN(c2ccc(-c3nc(-c4cnn([C@H]5CC[C@H](N6CCC(c7ccc(N[C@@H]8CCC(=O)NC8=O)cc7F)CC6)CC5)c4)cn4ncc(C#N)c34)cn2)CC1 (single isomer, unassigned) [Compound 146]	++++ (<50 nM = ++++)	< 30	< 50	++++ (<50 nM = ++++)	< 30	< 50

Further lines, results first:

293T.144 RET (658-1114) 6.0 hours (IP) [nM] (RET (658-1114))	Emax (RET (658-1114)) [%]	DC50 (RET (658-1114)) [nM]	293T.165 RET(KD: 658-1114 G810R) 6.0 hours (IP) [nM] (RET(KD: 658-1114 G810R))	Emax (RET(KD: 658-1114 G810R)) [%]	DC50 (RET(KD: 658-1114 G810R)) [nM]	Compound
++++ (<50 nM = ++++)	< 30	< 50	++++ (<50 nM = ++++)	< 30	< 50	CCC1(C(=O)NC2CCC2)CCN(c2ccc(-c3nc(-c4cnn([C@H]5CC[C@H](N6CCC(c7ccc(N[C@H]8CCC(=O)NC8=O)cc7)CC6)CC5)c4)cn4ncc(C#N)c34)cn2)CC1 (single isomer, unassigned) [Compound 127]
	< 30	< 50		< 30	< 50	CCC1(C(=O)NC2CCC2)CCN(c2ccc(-c3nc(-c4cnn([C@H]5CC[C@H](N6CCC(c7ccc(NC8CCC(=O)NC8=O)cc7Cl)CC6)CC5)c4)cn4ncc(C#N)c34)cn2)CC1 (single isomer, unassigned) [Compound 133, 1-[5-[6-[1-[4-[4-[2-chloro-4-[(2,6-dioxo-3-piperidyl)amino]phenyl]-1-piperidyl]cyclohexyl]pyrazol-4-yl]-3-cyano-pyrazolo[1,5-a]pyrazin-4-yl]-2-pyridyl]-N-cyclobutyl-4-ethyl-piperidine-4-carboxamide]
++++ (<50 nM = ++++)	< 30	< 50	++++ (<50 nM = ++++)	< 30	< 50	CCC1(C(=O)NC2CCC2)CCN(c2ccc(-c3nc(-c4cnn([C@H]5CC[C@H](N6CCN(c7cc(OC)c(N[C@H]8CCC(=O)NC8=O)cc7F)CC6)CC5)c4)cn4ncc(C#N)c34)cn2)CC1 (single isomer, unassigned) [Compound 134]
++++ (<50 nM = ++++)	< 30	< 50	++++ (<50 nM = ++++)	< 30	< 50	CCC1(C(=O)NC2CCC2)CCN(c2ccc(-c3nc(-c4cnn([C@H]5CC[C@H](N6CCN(c7cc(OC)c(N[C@@H]8CCC(=O)NC8=O)cc7F)CC6)CC5)c4)cn4ncc(C#N)c34)cn2)CC1 (single isomer, unassigned) [Compound 135]
++++ (<50 nM = ++++)	< 30	< 50	++++ (<50 nM = ++++)	< 30	< 50	CCC1(C(=O)NC2CCC2)CCN(c2ccc(-c3nc(-c4cnn([C@H]5CC[C@H](N6CCN(c7c(F)cc(N[C@@H]8CCC(=O)NC8=O)cc7F)CC6)CC5)c4)cn4ncc(C#N)c34)cn2)CC1 (single isomer, unassigned) [Compound 137]
++++ (<50 nM = ++++)	< 30	< 50	++++ (<50 nM = ++++)	< 30	< 100	CCC1(C(=O)NC2CCC2)CCN(c2ccc(-c3nc(-c4cnn([C@H]5CC[C@H](N6CCC(c7ccc8c(N9CCC(=O)NC9=O)nn(C)c8c7F)CC6)CC5)c4)cn4ncc(C#N)c34)cn2)CC1 (single isomer, unassigned) [Compound 138, 1-(5-(3-Cyano-6-(1-((1r, 4r)-4-(4-(3-(2,4-dioxotetrahydropyrimidin-1(2H)-yl)-7-fluoro-1-methyl-1H-indazol-6-yl)piperidin-1-yl)cyclohexyl)-1H-pyrazol-4-yl)pyrazolo[1,5-a]pyrazin-4-yl)pyridin-2-yl)-N-cyclobutyl-4-ethylpiperidine-4-carboxamide]
++++ (<50 nM = ++++)	< 30	< 50	++++ (<50 nM = ++++)	< 30	< 50	CCC1(c2ncccn2)CCN(c2ccc(-c3nc(-c4cnn([C@H]5CC[C@H](N6CCC(c7ccc(N[C@H]8CCC(=O)NC8=O)cc7F)CC6)CC5)c4)cn4ncc(C#N)c34)cn2)CC1 (single isomer, unassigned) [Compound 139]
++++ (<50 nM = ++++)	< 30	< 50	++++ (<50 nM = ++++)	< 30	< 50	CCC1(C(=O)NC(C)(C)C)CCN(c2ccc(-c3nc(-c4cnn([C@H]5CC[C@H](N6CCC(c7ccc(N[C@H]8CCC(=O)NC8=O)cc7F)CC6)CC5)c4)cn4ncc(C#N)c34)cn2)CC1 (single isomer, unassigned) [Compound 145]
